Activity calls are given as the source filed them. No cut-off for these calls is given here.
Legend:
HPAF-II [1] = experiment: Inhibition of MAPK signalling pathway in human HPAF-II cells at 20 uM incubated for 24 hrs by KEGG analysis; format: functional, cell-based
HPAF-II [2] = experiment: Downregulation of phosphorylated AKT expression in human HPAF-II cells at 20 uM incubated for 48 hrs by Western blot analysis; format: functional, cell-based
HPAF-II [3] = experiment: Effect on mTORC1 signalling pathway in human HPAF-II cells at 20 uM incubated for 24 hrs by KEGG analysis; format: functional, cell-based
HPAF-II [4] = experiment: Downregulation of drug metabolism-related gene expression in human HPAF-II cells at 20 uM incubated for 24 hrs by KEGG analysis; format: functional, cell-based
[5] = target: T1, Nuclear receptor ROR-gamma (Homo sapiens, UniProt P51449); experiment: Binding affinity to ROR-gamma LBD (unknown origin) assessed as dissociation constant by ITC analysis
T1 sequence (P51449 whole entry): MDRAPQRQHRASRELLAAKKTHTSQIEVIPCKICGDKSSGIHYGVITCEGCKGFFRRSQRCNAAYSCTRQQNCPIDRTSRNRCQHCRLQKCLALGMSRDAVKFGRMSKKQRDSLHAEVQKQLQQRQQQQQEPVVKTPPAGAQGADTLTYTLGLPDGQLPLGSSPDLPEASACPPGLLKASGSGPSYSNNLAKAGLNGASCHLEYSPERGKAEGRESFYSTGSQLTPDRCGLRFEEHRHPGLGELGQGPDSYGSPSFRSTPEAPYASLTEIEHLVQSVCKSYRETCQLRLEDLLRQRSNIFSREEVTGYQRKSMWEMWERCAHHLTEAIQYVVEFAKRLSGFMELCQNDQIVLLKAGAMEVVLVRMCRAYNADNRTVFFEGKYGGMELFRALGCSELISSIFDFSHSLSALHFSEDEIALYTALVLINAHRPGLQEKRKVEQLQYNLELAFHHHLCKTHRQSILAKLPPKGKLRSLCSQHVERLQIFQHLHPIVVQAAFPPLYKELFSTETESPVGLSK

HPAF-II [6] = experiment: Downregulation of phosphorylated ERK expression in human HPAF-II cells at 20 uM incubated for 48 hrs by Western blot analysis; format: functional, cell-based
[7] = target: T2, Nuclear receptor ROR-gamma (Homo sapiens) (UniProt P51449); experiment: Binding affinity to ROR-gamma LBD (265 to 507 residues)(unknown origin) assessed as increase in thermal stability by measuring change in melting temperature at 100 uM incubated for 2 hrs followed by heating at 20 to 90 degreeC by NanoDSF assay (reference value: 46.0 degreeC); settings: filed as antagonist
T2 sequence (whole entry): T1 sequence (P51449 whole entry)

HPAF-II [8] = experiment: Downregulation of cancer-related gene expression in human HPAF-II cells at 20 uM incubated for 24 hrs by GO analysis; format: functional, cell-based
HPAF-II [9] = experiment: Downregulation of lipid metabolism-related gene expression in human HPAF-II cells at 20 uM incubated for 24 hrs by GO analysis; format: functional, cell-based
HPAF-II [10] = experiment: Inhibition of RAS signalling pathway in human HPAF-II cells at 20 uM incubated for 24 hrs by KEGG analysis; format: functional, cell-based
HPAF-II [11] = experiment: Downregulation of retinol metabolism-related gene expression in human HPAF-II cells at 20 uM incubated for 24 hrs by KEGG analysis; format: functional, cell-based
HPAF-II [12] = experiment: Downregulation of cancer-related gene expression in human HPAF-II cells at 20 uM incubated for 24 hrs by KEGG analysis; format: functional, cell-based
[13] = target: T2, Nuclear receptor ROR-gamma (Homo sapiens); experiment: Binding affinity to ROR-gamma LBD (265 to 507 residues)(unknown origin) assessed as increase in thermal stability by measuring melting temperature at 100 uM incubated for 2 hrs followed by heating at 20 to 90 degreeC by NanoDSF assay (reference value: 46.0 degreeC); settings: filed as antagonist
[14] = target: T1, Nuclear receptor ROR-gamma; experiment: Binding affinity to CM5 chip-immobilized recombinant ROR-gamma LBD (unknown origin) assessed as dissociation constant by SPR analysis
HPAF-II [15] = experiment: Downregulation of chemical carcinogenesis-related gene expression in human HPAF-II cells at 20 uM incubated for 24 hrs by KEGG analysis; format: functional, cell-based
HPAF-II [16] = experiment: Antitumor activity against human HPAF-II cells measured after 72 hrs; format: functional, cell-based
HPAF-II [17] = experiment: Downregulation of phosphorylated MEK expression in human HPAF-II cells at 20 uM incubated for 48 hrs by Western blot analysis; format: functional, cell-based
HPAF-II [18] = experiment: Downregulation of retinol metabolism-related gene expression in human HPAF-II cells at 20 uM incubated for 24 hrs by GO analysis; format: functional, cell-based
[19] = target: T2, Nuclear receptor ROR-gamma (Homo sapiens); experiment: Binding affinity to ROR-gamma LBD (unknown origin) assessed as protein stabilization by measuring reduction in hydrolysis rate incubated for 10 mins by SDS-PAGE analysis; settings: filed as antagonist, dose <= 100.0 µM
[20] = target: T1, Nuclear receptor ROR-gamma; experiment: Antagonist activity at ROR-gamma LBD (unknown origin) using biotinylated SRC1-2 as substrate preincubated for 60 mins followed by substrate addition measured after 30 mins by HTRF assay

C=C(C)[C@@H]1CC[C@]2(C(=O)O)CC[C@]3(C)[C@H](CC[C@@H]4[C@@]5(C)CC[C@H](O)C(C)(C)[C@@H]5CC[C@]43C)[C@@H]12 [BETULINIC ACID]
inhibition (HPAF-II [1]): Active
Activity (HPAF-II [2]): Active
Activity (HPAF-II [3]): Active
Activity (HPAF-II [4]): Active
Kd [5]: 3.39 µM
Activity (HPAF-II [6]): Active
ΔTm [7]: 14.1 °C
Activity (HPAF-II [8]): Active
Activity (HPAF-II [9]): Active
inhibition (HPAF-II [10]): Active
Activity (HPAF-II [11]): Active
Activity (HPAF-II [12]): Active
Tm [13]: 60.2 °C
Kd [14]: 2700 nM
Activity (HPAF-II [15]): Active
IC50 (HPAF-II [16]): 12.5 µM
Activity (HPAF-II [17]): Active
Activity (HPAF-II [18]): Active
Activity [19]: Dose-Dependent Effect
IC50 [20]: 2200 nM

Reference: ChEMBL document CHEMBL5620362 (Eur J Med Chem, 2023)
